Laboratory results: patent US20210187106A1, “COMBINATION OF LIF INHIBITORS AND PLATINUM-BASED ANTINEOPLASTIC AGENTS FOR USE IN TREATING CANCER” (MEDIMMUNE LIMITED, priority 2018, published 2021)
“And” between values parts separate entries of the source, which are not always exact repeats. Equal values may be shown once. “Also recorded” adds a separate entry of the source.

Key:
CT26 tumors [1] = experiment: Subcutaneous implanted CT26 model, h5D8 combined with cisplatin, doxorubicin or paclitaxel; type: in vivo, mouse; conditions: individual BALB/c mice, h5D8 15 mg/kg twice a week, cisplatin 10 mg/kg once a week, paclitaxel 15 mg/kg twice a week, doxorubicin 4 mg/kg once a week
CT26 tumors [2] = experiment: Subcutaneous colon CT26 syngeneic tumor model in mice; type: in vivo, mouse; conditions: FIG. 10E
Method: CT26 cells were cultured in Roswell Park Memorial Institute medium (RPMI [Gibco, Invitrogen]), supplemented with 10% Fetal Bovine Serum (FBS), 40 U/mL penicillin and 40 μg/mL streptomycin (PenStrep) and 0.25 μg/mL Plasmocin.
CT26 cells (8×10^5)were trypsinized, rinsed with PBS, centrifuged at 400 g for 5 minutes and resuspended in 100 μL PBS. Cells were kept on ice to avoid cell death. The CT26 cells were administered to mice via subcutaneous injection using a 27G needle.
300 μg r5D8, or vehicle control, was administered to the mice via intraperitoneal injection (IP) twice weekly from day 3 post CT26 cell implant.
Body weight and tumor volumes were measured three times per week. Tumor volume was measured using a caliper (Fisher Scientific).

[3] = test system: LIF-induced STAT3 phosphorylation in U251 glioma cells; experiment: Inhibition of LIF-induced STAT3 phosphorylation (Tyr705) by western blot, 5D8 humanization panel; type: cell-based, human; conditions: serum starved, antibody 10 μg/ml over night
Method: One clone from the rat immunization (5D8) was chosen for subsequent humanization. Humanization was conducted using standard CDR grafting methods. The heavy chain and light chain regions were cloned from the 5D8 hybridoma using standard molecular cloning techniques and sequenced by the Sanger method. A BLAST search was then conducted against human heavy chain and light chain variable sequences and 4 sequences from each were chosen as acceptor frameworks for humanization. These acceptor frameworks were deimmunized to remove T cell response epitopes. The heavy chain and light chain CDR1, CDR2 and CDR3 of 5D8 were cloned into the 4 different heavy chain acceptor frameworks (H1 to H4), and 4 different light chain frameworks (L1 to L4). Then all 16 different antibodies were tested for: expression in CHO-S cells (Selexis); inhibition of LIF-induced STAT3 phosphorylation; and binding affinity by Surface Plasmon Resonance (SPR). These experiments are summarized in
Inhibition of LIF-induced STAT3 phosphorylation at tyrosine 705 was determined by western blot. […] After treatment, proteins were obtained in radio-immunoprecipitation assay (RIPA) lysis buffer containing phosphatase and protease inhibitors, quantified (BCA-protein assay, Thermo Fisher Scientific) and used in western blot. […] Proteins were detected by chemiluminescence (SuperSignal Substrate, catalog #34076, Thermo Fisher Scientific). […]

human U251 GBM cells = experiment: Orthotopic GBM tumor model with luciferase expressing U251 cells in mice; type: in vivo; conditions: 200 μg or 300 μg twice a week, FIG. 7B
Method: Results of this study are shown in FIG. 7A (quantitation at day 26 post treatment). […] Tumor size was determined by bioluminescence (Xenogen IVIS Spectrum) on day 7. […] Statistical significance was calculated using the unpaired non-parametric Mann-Whitney U-test.
U251 cells stably expressing luciferase were harvested, washed in PBS, centrifuged at 400 g for 5 min, resuspended in PBS and counted with an automated cell counter (Countess, Invitrogen). Cells were kept on ice to maintain optimal viability. Mice were anaesthetized with intraperitoneal administration of Ketamine (Ketolar50®)/Xylacine (Rompún®) (75 mg/kg and 10 mg/kg respectively). Each mouse was carefully placed in the stereotactic device and immobilized. […]
Body weight and tumor volume: Body weight was measured 2 times/week and tumor growth was quantified by bioluminescence on day 7 (Xenogen IVIS Spectrum). To quantify bioluminescence activity in vivo, mice were anaesthetized using isofluorane, and injected intraperitoneally with luciferin substrate (PerkinElmer) ([…]).
Tumor size as determined by bioluminescence (Xenogen IVIS Spectrum) was evaluated at day 7. The individual tumor measurements and mean±SEM for each treatment group were calculated. Statistical significance was determined by the unpaired non-parametric Mann-Whitney U-test.

[4] = test system: STAT3 phosphorylation (Tyr 705) in U251 glioma cells; experiment: Inhibition of STAT3 phosphorylation in glioma cell culture model of LIF activation, western blot; type: cell-based, human; conditions: 10 μg/ml over night, FIG. 2A
Method: U251 glioma cells were plated in 6-well plates at a density of 150,000 cells/well. Cells were cultured in complete medium for 24 hours before any treatment.
After treatment, proteins were obtained in radio-immunoprecipitation assay (RIPA) lysis buffer containing phosphatase and protease inhibitors, quantified (BCA-protein assay, Thermo Fisher Scientific) and used in western blot. For western blot, membranes were blocked for 1 hour in 5% non-fatty milk—TBST and incubated with the primary antibody overnight (p-STAT3, catalog #9145, Cell Signaling or STAT3, catalog #9132, Cell Signaling) or 30 minutes (β-actin-peroxidase, catalog #A3854, Sigma-Aldrich). Membranes were then washed with TBST, incubated with secondary antibody if necessary, and washed again. Proteins were detected by chemiluminescence (SuperSignal Substrate, catalog #34076, Thermo Fisher Scientific).

ID8 cells = experiment: Ovarian orthotopic syngeneic tumor model ID8 in mice; type: in vivo; conditions: 200 μg/mouse and above twice weekly, FIG. 8C
Method: The efficacy of r5D8 was evaluated in two other syngeneic tumor models.
ID8 cells were cultured in Dulbecco's Modified Eagle Medium (DMEM) (Gibco, Invitrogen), supplemented with 10% Fetal Bovine Serum (FBS) (Gibco, Invitrogen), 40 U/mL Penicillin and 40 μg/mL Streptomycin (PenStrep) (Gibco, Invitrogen) and 0.25 μg/mL Plasmocin (Invivogen).
The ID8 cells were harvested, washed in PBS, centrifuged at 400 g for 5 min and resuspended in PBS. Cells were kept on ice to maintain optimal viability and 200 μL of the cell suspension was injected intraperitoneally with a 27G needle. The final cell number implanted into mice was 5×10^6.
Mice were treated twice weekly with h5D8 administered ip at different doses as indicated. Body weights were measured 2 times/week and tumor progression was monitored by measuring abdominal girth using a caliper (Fisher Scientific).

[5] = test system: CCL22 and CD206 (MRC1) expression in patient samples; experiment: Human organotypic tissue slice culture model, M2 macrophage markers; type: cell-based; conditions: three patient samples, FIG. 10B
[6] = test system: KLN205 non-small cell lung cancer (NSCLC) cells; experiment: Orthotopic syngeneic mouse model of non-small cell lung carcinoma (KLN205); type: in vivo; conditions: DBA/2 mice, 15 mg/kg or 30 mg/kg intraperitoneally twice a week, versus vehicle
Method: To determine the ability of the humanized 5D8 clone to inhibit a LIF positive cancer in vivo this antibody was tested in a mouse model of non-small cell lung carcinoma (NSCLC).
The murine non-small cell lung cancer (NSCLC) cell line KLN205 with high LIF levels was stably infected with lentivirus expressing the firefly luciferase gene for in vivo bioluminescence monitoring. To develop the mouse model, 5×10^5KLN205 non-small cell lung cancer (NSCLC) cells were orthotopically implanted into the left lung of 8-week-old immunocompetent syngeneic DBA/2 mice by intercostal puncture. […] For the bioluminescence imaging, mice received an intraperitoneal injection of 0.2 mL of 15 mg/mL D-luciferin under 1-2% inhaled isoflurane anesthesia. The bioluminescence signals were monitored using the IVIS system 2000 series (Xenogen Corp., Alameda, Calif., USA) consisting of a highly sensitive cooled CCD camera. Living Image software (Xenogen Corp.) was used to grid the imaging data and integrate the total bioluminescence signals in each boxed region. Data were analyzed using the total photon flux emission (photons/second) in the regions of interest (ROI). […] Data are presented as mean±SEM.

N.N.[Cl][Pt][Cl] [Cisplatin, cis-diamminedichloridoplatinum(II)]
Tumor Volumes at Endpoint (Day 21) (CT26 tumors [1]): 328.5 mm^3 and 1279.7 mm^3 and 689.4 mm^3 and 512.3 mm^3 and 193.9 mm^3 and 997.5 mm^3 and 257.9 mm^3 and 924.4 mm^3 and 744.2 mm^3 and 1313.6 mm^3 and 676.0 mm^3 and 953.8 mm^3

COc1cccc2c1C(=O)c1c(O)c3c(c(O)c1C2=O)C[C@@](O)(C(=O)CO)C[C@@H]3O[C@H]1C[C@H](N)[C@H](O)[C@H](C)O1 [Doxorubicin]
Tumor Volumes at Endpoint (Day 21) (CT26 tumors [1]): 408.7 mm^3 and 1207.4 mm^3 and 94.2 mm^3 and 109.1 mm^3 and 294.9 mm^3 and 780.2 mm^3 and 351.2 mm^3 and 735.2 mm^3 and 48.9 mm^3 and 463.9 mm^3 and 588.8 mm^3 and 230.3 mm^3

CC(=O)O[C@H]1C(=O)[C@@]2(C)[C@H]([C@H](OC(=O)c3ccccc3)[C@]3(O)C[C@H](OC(=O)[C@H](O)[C@@H](NC(=O)c4ccccc4)c4ccccc4)C(C)=C1C3(C)C)[C@]1(OC(C)=O)CO[C@@H]1C[C@@H]2O [Paclitaxel]
Tumor Volumes at Endpoint (Day 21) (CT26 tumors [1]): 651.8 mm^3 and 214.0 mm^3 and 461.5 mm^3 and 698.3 mm^3 and 457.7 mm^3 and 256.2 mm^3 and 592.2 mm^3 and 435.9 mm^3 and 762.1 mm^3 and 1236.2 mm^3 and 112.9 mm^3

h5D8: humanized (CDR grafted) version of rat anti-LIF antibody 5D8, H2 heavy and L2 light chain; VH SEQ ID NO: 42, VL SEQ ID NO: 46
inflammatory phenotype of tumor associated macrophages (TAMs) (CT26 tumors [2]; 15 mg/kg, 2 QW, day 25 (endpoint)): polarized towards the M1 pro-inflammatory phenotype
macrophages with an M1 phenotype (CD206 negative/MHCII positive fraction) (CT26 tumors [2]; syngeneic CT26 tumor model): increased
macrophages with an M2 phenotype (CD206 positive/MHCII negative fraction) (CT26 tumors [2]; syngeneic CT26 tumor model): decreased
Inhibition of LIF-induced STAT3 phosphorylation (FIG. 1, in words) [3]: high
tumor size by bioluminescence on day 7 (human U251 GBM cells): statistically significant reduction in tumor
inhibition of STAT3 phosphorylation (Tyr 705) versus parental antibody [4]: increased inhibition
Tumor Volumes at Endpoint (Day 21) (CT26 tumors [1]): 656.8 mm^3 and 1354.4 mm^3 and 1190.7 mm^3 and 1109.1 mm^3 and 906.6 mm^3 and 640.3 mm^3 and 0.0 mm^3 and 956.9 mm^3 and 318.7 mm^3 and 253.6 mm^3 and 1408.5 mm^3 and 508.3 mm^3
tumor volume / tumor growth (ID8 cells): reduced tumor volume; also recorded: significant reduction in tumor growth
CCL22 and CD206 (MRC1) expression [5]: significant decrease
tumor growth by bioluminescence [6]: promote tumor regression
tumor growth by bioluminescence ([6]; listed as humanized 5D8): reduced tumor growth
